Source: ChEMBL document CHEMBL2163255, “Zwitterions can be predominant in membrane penetration of drugs: experimental proof” (J Med Chem, 2012)

How the values were obtained:
Assay type in all cases: physicochemical
[1] = Octanol-water distribution coefficient, log D of the compound at pH 4.96 by stir flask method
[2] = Octanol-water distribution coefficient, log D of the compound at pH 0.82 by stir flask method
[3] = Octanol-water partition coefficient, log P of zwitter ionic form of compound at 0.15 M ionic strength by stir flask method
[4] = Octanol-water distribution coefficient, log D of the compound at pH 13.18 by stir flask method
[5] = Octanol-water partition coefficient, log P of noncharged form of compound at 0.15 M ionic strength by stir flask method
[6] = Octanol-water distribution coefficient, log D of the compound at pH 5.4 by stir flask method

Row | logD [1] | logD [2] | logP [3] | logD [4] | logP [5] | logD [6] | Compound
1 | -0.14 | 0.13 | -0.22 | 0.21 | 3.98 | – | CC[C@@]12C=C(C(=O)O)n3c4c(c5ccccc53)CCN(CCC1)[C@@H]42
2 | – | -0.05 | -1.03 | -0.07 | 3.46 | -0.97 | CC[C@@]12C=C(C(=O)O)n3c4c(c5ccccc53)CCN(CCC1)[C@H]42
3 | – | 0.9 | – | – | 4.75 | – | CCOC(=O)C1=C[C@]2(CC)CCCN3CCc4c(n1c1ccccc41)[C@H]32
4 | – | 0.94 | – | – | 4.45 | – | CCOC(=O)C1=C[C@]2(CC)CCCN3CCc4c(n1c1ccccc41)[C@@H]32 [VINPOCETINE]
